The record followed here is patent publication US10981891B2, “Antibacterial compounds and uses thereof” (priority 2016, dated 2021).

This assay concerns M. tuberculosis H37Rv (ATCC 27294). Description: Microplate Alamar Blue assay (MABA), MIC against replicating M. tuberculosis H37Rv. The settings on record: Mycobacterium tuberculosis, 168 h; H37Rv, MABA, 7H12 media, 7 days at 37° C.; MIC = lowest concentration reducing fluorescence by 90% relative to controls; read-out: M. tuberculosis MIC. The class given is cell-based. (Resazurin is reduced to fluorescent resorufin, in cell work by metabolically active cells.)

Converted amounts (≈) assume the structure as drawn. Bounds are passed on as bounds.

The MIC is the smallest concentration in the dilution series that meets the test's criterion for growth inhibition.

With `COc1cccc(C(c2cc3cc(Br)ccc3nc2OC)C(O)(CCN(C)C)c2cc(SC)nc(SC)c2)c1F` (centres unmarked) [Example 45, 2-(2,6-Bis(methylthio)pyridin-4-yl)-1-(6-bromo-2-methoxyquinolin-3-yl)-4-(dimethylamino)-1-(2-fluoro-3-methoxyphenyl)butan-2-ol], the MIC is below 0.02 µg/mL.

For `COc1nc2ccc(Br)cc2cc1C(c1ccnc(OC)c1OC)C(O)(CCN(C)C)c1cc(SC)nc(SC)c1` (centres unmarked) [Example 46, 2-(2,6-Bis(methylthio)pyridin-4-yl)-1-(6-bromo-2-methoxyquinolin-3-yl)-1-(2,3-dimethoxypyridin-4-yl)-4-(dimethylamino)butan-2-ol], the minimum inhibitory concentration (MIC) is below 0.02 µg/mL.

As to `COc1cc(C(O)(CCN(C)C)C(c2cc3cc(Br)ccc3nc2OC)c2cccc(OC)c2F)cc(SC)n1` (centres unmarked) [Example 48, 1-(6-Bromo-2-methoxyquinolin-3-yl)-4-(dimethylamino)-1-(2-fluoro-3-methoxyphenyl)-2-(2-methoxy-6-(methylthio)pyridin-4-yl)butan-2-ol], the MIC was below 0.02 µg/mL.

For the compound `COc1cc(C(O)(CCN(C)C)C(c2cc3cc(Br)ccc3nc2OC)c2cccc(OC)c2F)cc(OC(F)F)n1` (centres unmarked) [Example 49, 1-(6-Bromo-2-methoxyquinolin-3-yl)-2-(2-(difluoromethoxy)-6-methoxypyridin-4-yl)-4-(dimethylamino)-1-(2-fluoro-3-methoxyphenyl)butan-2-ol], the MIC amounted to 0.04 µg/mL (≈ 0.0615 µM).

Consider `COc1cc(C(O)(CCN(C)C)C(c2cc3cc(Br)ccc3nc2OC)c2ccnc(OC)c2OC)cc(OC(F)F)n1` (centres unmarked) [Example 51, 1-(6-Bromo-2-methoxyquinolin-3-yl)-2-(2-(difluoromethoxy)-6-methoxypyridin-4-yl)-1-(2,3-dimethoxypyridin-4-yl)-4-(dimethylamino)butan-2-ol], for which the minimum inhibitory concentration (MIC) is below 0.004 µg/mL.

In the case of `COc1cc(C(O)(CCN(C)C)C(c2cc3cc(Br)ccc3nc2OC)c2cccc(C)c2F)cc(OC(F)F)n1` (centres unmarked) [Example 54, 1-(6-Bromo-2-methoxyquinolin-3-yl)-2-(2-(difluoromethoxy)-6-methoxypyridin-4-yl)-4-(dimethylamino)-1-(2-fluoro-3-methylphenyl)butan-2-ol], the MIC was found to be 0.01 µg/mL (≈ 0.0158 µM).

Consider `COc1nc2ccc(Br)cc2cc1C(c1cccc(C)c1F)C(O)(CCN(C)C)c1cc(SC)nc(SC)c1` (centres unmarked) [Example 55, 2-(2,6-Bis(methylthio)pyridin-4-yl)-1-(6-bromo-2-methoxyquinolin-3-yl)-4-(dimethylamino)-1-(2-fluoro-3-methylphenyl)butan-2-ol], for which the MIC is below 0.004 µg/mL.

Turning to `COc1nc2ccc(Br)cc2cc1C(c1cccc2c1OCCO2)C(O)(CCN(C)C)c1cc(SC)nc(SC)c1` (centres unmarked) [Example 56, 2-(2,6-Bis(methylthio)pyridin-4-yl)-1-(6-bromo-2-methoxyquinolin-3-yl)-1-(2,3-dihydrobenzo[b][1,4]dioxin-5-yl)-4-(dimethylamino)butan-2-ol], the MIC amounted to 0.01 µg/mL (≈ 0.0152 µM).

Turning to `COc1cc(C(O)(CCN(C)C)C(c2cc3cc(Br)ccc3nc2OC)c2cccc3c2OCCO3)cc(OC(F)F)n1` (centres unmarked) [Example 58, 1-(6-Bromo-2-methoxyquinolin-3-yl)-2-(2-(difluoromethoxy)-6-methoxypyridin-4-yl)-1-(2,3-dihydrobenzo[b][1,4]dioxin-5-yl)-4-(dimethylamino)butan-2-ol], the minimal inhibitory concentration (MIC) is below 0.01 µg/mL.

For `COc1cc(C(O)(CCN(C)C)C(c2cc3cc(Br)ccc3nc2OC)c2ccnc(OC)c2OC)c(OC)c(OC)n1` (centres unmarked) [Example 61, 1-(6-Bromo-2-methoxyquinolin-3-yl)-1-(2,3-dimethoxypyridin-4-yl)-4-(dimethylamino)-2-(2,3,6-trimethoxypyridin-4-yl)butan-2-ol], the MIC was determined as 0.02 µg/mL (≈ 0.0304 µM).

`COc1cc(C(O)(CCN(C)C)C(c2cc3cc(Br)ccc3nc2OC)c2ccnc(OC)c2OC)cc(N(C)C)n1` (centres unmarked) [Example 68, 1-(6-Bromo-2-methoxyquinolin-3-yl)-1-(2,3-dimethoxypyridin-4-yl)-4-(dimethylamino)-2-(2-(dimethylamino)-6-methoxypyridin-4-yl)butan-2-ol]: the MIC turned out to be 0.01 µg/mL (≈ 0.0156 µM).

Regarding `COc1cc(C(O)(CCN(C)C)C(c2cc3cc(Br)ccc3nc2OC)c2sc(OC)nc2Cl)cc(OC)n1` (centres unmarked) [Example 71, 1-(6-Bromo-2-methoxyquinolin-3-yl)-1-(4-chloro-2-methoxythiazol-5-yl)-2-(2,6-dimethoxypyridin-4-yl)-4-(dimethylamino)butan-2-ol], the minimum inhibitory concentration (MIC) came to 0.03 µg/mL (≈ 0.047 µM).

With `COc1nc2ccc(C#N)cc2cc1C(c1cccc(F)c1)C(O)(CCN(C)C)c1cc2ccccc2o1` (centres unmarked) [Example 73, 3-(2-(Benzofuran-2-yl)-4-(dimethylamino)-1-(3-fluorophenyl)-2-hydroxybutyl)-2-methoxyquinoline-6-carbonitrile], the MIC is 0.08 µg/mL (≈ 0.157 µM).

On to `COc1nc2ccc(C#N)cc2cc1C(c1cccc(F)c1)C(O)(CCN(C)C)c1cccc2ccoc12` (centres unmarked) [Example 74, 3-(2-(Benzofuran-7-yl)-4-(dimethylamino)-1-(3-fluorophenyl)-2-hydroxybutyl)-2-methoxyquinoline-6-carbonitrile], for which the MIC was determined as 0.04 µg/mL (≈ 0.0785 µM).

On to `COc1cc(C(O)(CCN(C)C)C(c2ccc(C)s2)c2cc3cc(C#N)ccc3nc2OC)cc(OC)n1` (centres unmarked) [Example 75, 3-(2-(2,6-Dimethoxypyridin-4-yl)-4-(dimethylamino)-2-hydroxy-1-(5-methylthiophen-2-yl)butyl)-2-methoxyquinoline-6-carbonitrile], for which the minimal inhibitory concentration (MIC) was 0.19 µg/mL (≈ 0.357 µM).

For `COc1cc(C(c2cc3cc(C#N)ccc3nc2OC)C(O)(CCN(C)C)c2cccc3ccoc23)cc(OC(C)C)n1` (centres unmarked) [Example 77, 3-(2-(Benzofuran-7-yl)-4-(dimethylamino)-2-hydroxy-1-(2-isopropoxy-6-methoxypyridin-4-yl)butyl)-2-methoxyquinoline-6-carbonitrile], the minimum inhibitory concentration (MIC) was below 0.02 µg/mL.

As for `CNCCC(O)(c1cc(OC)nc(OC)c1)C(c1ccc(C)s1)c1cc2cc(C#N)ccc2nc1OC` (centres unmarked) [Example 78, 3-(2-(2,6-Dimethoxypyridin-4-yl)-2-hydroxy-4-(methylamino)-1-(5-methylthiophen-2-yl)butyl)-2-methoxyquinoline-6-carbonitrile], the MIC stood at 0.09 µg/mL (≈ 0.174 µM).

For the compound `COc1cc(C(O)(CCN(C)C)C(c2cccc(F)c2)c2cc3cc(C#N)ccc3nc2OC)cc(OC)n1` (centres unmarked) [Example 80, 3-(2-(2,6-Dimethoxypyridin-4-yl)-4-(dimethylamino)-1-(3-fluorophenyl)-2-hydroxybutyl)-2-methoxyquinoline-6-carbonitrile], the minimal inhibitory concentration (MIC) was 0.03 µg/mL (≈ 0.0565 µM).

Consider `COc1cc(C(O)(CCN(C)C)C(c2cc3cc(C#N)ccc3nc2OC)c2cccc(OC)c2F)cc(OC(F)F)n1` (centres unmarked) [Example 82, 3-(2-(2-(Difluoromethoxy)-6-methoxypyridin-4-yl)-4-(dimethylamino)-1-(2-fluoro-3-methoxyphenyl)-2-hydroxybutyl)-2-methoxyquinoline-6-carbonitrile], for which the minimal inhibitory concentration (MIC) was below 0.02 µg/mL.

Take `COc1cc(C(O)(CCN(C)C)C(c2cc3cc(C#N)ccc3nc2OC)c2ccnc(OC)c2OC)cc(OC(F)F)n1` (centres unmarked) [Example 83, 3-(2-(2-(Difluoromethoxy)-6-methoxypyridin-4-yl)-1-(2,3-dimethoxypyridin-4-yl)-4-(dimethylamino)-2-hydroxybutyl)-2-methoxyquinoline-6-carbonitrile]: the MIC was below 0.02 µg/mL.
